# Source: PubChem BioAssay (NCI)
# Several values for one entry are separate records, joined by “and”; a condition that tells them apart may be missing. Identical values can stand only once.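 1) Cells in 96-well plates. 2) Compound, 48 h, 5 concentrations. 3) Linear interpolation between surrounding doses. 4) Unreached endpoint = highest concentration. GI50 marks 50% less growth. TGI denotes the concentration required for complete inhibition of growth.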
# Key:
# Assay in all cases: NCI-60 cell line screen, 48 h
# [1] = system: SF-539 CNS
# [2] = system: SF-268 CNS
# [3] = system: T-47D breast
# [4] = system: MDA-MB-435
# [5] = system: LOX IMVI melanoma
# [6] = system: UO-31 renal
# [7] = system: SK-MEL-28 melanoma
# [8] = system: MOLT-4 leukemia
# [9] = system: DU-145 prostate
# [10] = system: SNB-75 CNS
SMILES,GI50 [1],TGI [1],GI50 [2],TGI [2],GI50 [3],TGI [3],GI50 [4],TGI [4],GI50 [5],TGI [5],GI50 [6],TGI [6],GI50 [7],TGI [7],GI50 [8],TGI [8],GI50 [9],TGI [9],GI50 [10],TGI [10]
O=C(/C=C/c1ccco1)Nc1ncc(Cc2cccc(C(F)(F)F)c2)s1,76.2 nM,313 nM,167 nM,> 44200 nM,120 nM,> 92200 nM,20.7 nM,53.3 nM,57.2 nM,2920 nM,166 nM,5130 nM,1100 nM,> 50200 nM,84 nM,26000 nM,103 nM,> 24300 nM,30.1 nM,1650 nM
CN(C)c1ccc(/C=C(\C#N)c2ccccc2)cc1,324 nM and 481 nM,1340 nM and 4480 nM,–,> 100000 nM,446 nM and 534 nM and 473 nM,> 100000 nM,42.4 nM and 192 nM and 130 nM,–,777 nM and 605 nM and 404 nM,> 100000 nM and 43100 nM,587 nM and 698 nM and 1740 nM,> 100000 nM,–,> 100000 nM,372 nM and 439 nM and 545 nM,> 100000 nM,617 nM and 1510 nM and 1480 nM,22300 nM and > 100000 nM,361 nM and 626 nM and 299 nM,> 100000 nM
O=C(O)c1ccc(NCc2nc3ccccc3[nH]2)cc1,> 100000 nM,> 100000 nM,> 100000 nM,> 100000 nM,> 100000 nM,> 100000 nM,> 100000 nM,> 100000 nM,> 100000 nM,> 100000 nM,> 100000 nM,> 100000 nM,> 100000 nM,> 100000 nM,> 100000 nM,> 100000 nM,> 100000 nM,> 100000 nM,> 100000 nM,> 100000 nM
COc1cccc(CCNC(=O)CC(c2ccccc2)(c2ccccc2)c2ccccc2)c1,–,–,15000 nM,> 100000 nM,> 100000 nM,> 100000 nM,6500 nM,> 100000 nM,–,–,4750 nM,> 100000 nM,> 100000 nM,> 100000 nM,6010 nM,> 100000 nM,26800 nM,> 100000 nM,> 100000 nM,> 100000 nM
CC(C)n1nc(C#Cc2cccc(O)c2)c2c(N)ncnc21,815 nM and 282 nM,3570 nM and 1650 nM,1370 nM and 1090 nM,6710 nM and 6050 nM,1010 nM and 864 nM,3380 nM and 4090 nM,882 nM and 655 nM,5500 nM and 5030 nM,685 nM and 316 nM,2640 nM and 1190 nM,391 nM and 416 nM,1920 nM and 2830 nM,657 nM and 304 nM,2730 nM and 2360 nM,1200 nM and 412 nM,9400 nM and 4700 nM,1670 nM and 1510 nM,14500 nM and 11100 nM,161 nM and 442 nM,1120 nM and 2090 nM
Cc1cc(I)cc(CNCCN2CCOCC2)c1O,37200 nM,> 100000 nM,93200 nM,> 100000 nM,84800 nM,> 100000 nM,> 100000 nM,> 100000 nM,> 100000 nM,> 100000 nM,67800 nM,> 100000 nM,> 100000 nM,> 100000 nM,> 100000 nM,> 100000 nM,26300 nM,> 100000 nM,75600 nM,> 100000 nM
COc1ccc(C2CC(c3ccccc3)=NN2C(=O)c2cc(OC)c(OC)c(OC)c2)cc1O (stereo not drawn),288 nM,1310 nM,902 nM,> 39800 nM,–,–,–,–,611 nM,15600 nM,751 nM,> 100000 nM,597 nM,> 47600 nM,469 nM,16200 nM,479 nM,–,422 nM,> 100000 nM
CC(=O)OC1CC2C(C)(C)CCC[C@]2(C)C2=C1C(O)=C(C(C)C)C(=O)C2=O (stereo partly drawn),723 nM,3830 nM,902 nM,10100 nM,739 nM,4980 nM,335 nM,1720 nM,1150 nM,2950 nM,638 nM,2060 nM,680 nM,2160 nM,1400 nM,> 30800 nM,867 nM,2280 nM,1200 nM,3030 nM
Cc1cc(O[C@@H]2O[C@@H](C)[C@H](O)[C@@H](O)[C@H]2O)c2c3c(c(O[C@@H]4O[C@@H](C)[C@H](O)[C@@H](O)[C@H]4O)cc2c1)C(=O)c1c(O)cccc1C3=O,> 30000 nM,> 30000 nM,> 30000 nM,> 30000 nM,> 30000 nM,> 30000 nM,> 30000 nM,> 30000 nM,> 30000 nM,> 30000 nM,> 30000 nM,> 30000 nM,> 30000 nM,> 30000 nM,> 30000 nM,> 30000 nM,> 30000 nM,> 30000 nM,> 30000 nM,> 30000 nM
[N-]=[N+]=NCCCn1c2c(c3ccc([N+](=O)[O-])cc3c1=O)C(=O)c1cc(I)ccc1-2,2230 nM,8510 nM,2580 nM,> 100000 nM,3870 nM,> 100000 nM,34300 nM,> 100000 nM,3750 nM,33000 nM,3820 nM,45600 nM,41500 nM,> 100000 nM,833 nM,5080 nM,1780 nM,6950 nM,8630 nM,> 100000 nM
COc1ccc(N=N/C(=N\NC(=O)c2cc(Br)ccc2O)c2ccc(N(CCC#N)CCC#N)cc2OC)cc1,80.8 µg/mL,> 150 µg/mL,30.1 µg/mL,> 150 µg/mL,72.5 µg/mL,> 150 µg/mL,> 150 µg/mL,> 150 µg/mL,53.2 µg/mL,> 150 µg/mL,59.5 µg/mL,> 150 µg/mL,> 150 µg/mL,> 150 µg/mL,52 µg/mL,> 150 µg/mL,82 µg/mL,> 150 µg/mL,27.6 µg/mL,86.8 µg/mL
CCC(CC)c1cc(N[C@H]2CC[C@H](N)C2)n2nccc2n1,1000 nM,5070 nM,2440 nM,13900 nM,759 nM,> 100000 nM,1380 nM,3760 nM,747 nM,> 100000 nM,2080 nM,5690 nM,1930 nM,5240 nM,1360 nM,> 100000 nM,708 nM,> 100000 nM,1280 nM,3320 nM
